Data taken from patent US20110236397A1, “LIMITED PROTEOLYSIS OF CD2AP AND PROGRESSION OF RENAL DISEASE” (University of Miami, priority 2008, published 2011).
Residues, ends and D or L forms follow the SMILES beside them. *: point of attachment. Cbz = O=C(OCc1ccccc1)*; CH2F = FC*

Legend:
[1] = test system: rat glomerulonephritis model; settings: cited from earlier work
[2] = test system: podocytes; settings: in vivo; cited from earlier work
[3] = test system: cathepsin L; experiment: Cathepsin L activity assay in glomerular extracts (fluorogenic substrate CV-(FR)2); format: biochemical, mouse; settings: LPS treated mice, co-incubation
Experimental: Isolation and processing of glomeruli. Glomeruli were isolated from kidneys of 8-12 weeks old LPS- and PBS-treated (control) mice using a sequential sieve technique with mesh sizes of 180, 100, and 71 μm. The fraction collected from the 71-μm sieve was maintained for soup/pellet fractionation. Isolated glomeruli were homogenized in buffer containing 20 mM HEPES pH 7.5, 100 mM NaCl, 1 mM MgCl2, 1 mM PMSF, protease inhibitors (Roche), calpain inhibitor (Calbiochem), and E-64d (Calbiochem) using Dounce homogenizer. Subsequently, cytosol was centrifuged for 10 min at 4,600 g. Proteins were solubilized by 1% Triton X-100, 1 hour at 4° C., before it was spun at 70,000 g for 1 hour.
Cathepsin L activity assay. Subcellular sites of cathepsin L and cathepsin B activity in glomerular extracts were visualized by a fluorogenic substrate, CV—(FR)2, which emits light upon cleavage by cathepsin L or cathepsin B (Biomol).
To test the significance of this prediction, glomeruli were isolated from control mice and animals that were injected with low-dose lipopolysaccharide (LPS), a treatment causing high levels of cytosolic cathepsin L in podocytes. The tissue samples were further processed to obtain cytosolic and membrane-bound glomerular extracts (FIG. 1A). […]

[4] = test system: cathepsin L; experiment: Cellular CatL cleavage assay: CD2AP-FLAG HEK293 cells co-transfected with cathepsin L constructs; format: cell-based; settings: for cleavage of CD2AP into p32 by WT cathepsin L: WT cathepsin L (pre-pro and short form), co-incubation with inhibitor; for cleavage of CD2AP into p32 by cytosolic (short, CatL M1) cathepsin L: cytosolic cathepsin L alone, inhibitor added
Description: FIG. 2A is a scan of a photograph showing a silver stained gel of FLAG-CD2AP after cleavage with CatL at various pH. FIG. 2B is a scan of a photograph showing an immunoblot of cleaved CD2AP fragments that are tagged with a N-terminal GFP. GFP-CD2AP is stable in the absence of CatL enzyme. Cleavage of CD2AP at pH 4.5 and 5.5 leads to complete digestion of the protein. At pH 7.0, CD2AP is cleaved into a stable 55 kD fragment (▪) as detected with an anti-GFP antibody. The same fragment is detected with the CD2AP antiserum which is raised against the SH3 domains of CD2AP (anti-N-CD2AP). The CD2AP antiserum also detects a weak band corresponding to a 44 kD fragment (▴, detected by the affinity of the antibody to the C-terminal SH3, anti-C-CD2AP). FIG. 2C is a schematic representation showing the match of cleavage fragments with predicted CatL cleavage site QPLGS. FIG. 2D is a blot showing that CatL cleaves CD2AP-FLAG yielding a 44 kD (▴) and a 32 kD ([…]) fragment. FIG. 2E is a schematic representation showing that both fragments have corresponding predictions in the amino acid sequence of CD2AP (QPLGS and LSAAE). FIG. 2F is a blot showing results from a cellular CatL cleavage assay: Wild type (WT) CatL (pre-pro CatL and short form) cleaves CD2AP in HEK293 cells. […] Short CatL (CatL M1) is sufficient to cleave CD2AP yielding a 32 kD fragment ([…]). This cleavage is abrogated by a specific CatL inhibitor. FIG. 2G is a blot showing that deletion of the CatL cleavage site LSAAE protects CD2AP from limited proteolysis into the 32 kD fragment ([…]).
Cell culture and transient transfection. Mouse podocytes were cultured as described previously (Mundel, P. et al. Exp. Cell Res. 236, 248-258 (1997)). HEK293 cells were maintained and transfected as previously reported (Reiser, J. et al. Nat. Genet. 37, 739-744 (2005)).
Next, it was investigated whether cytosolic cathepsin L in cells is sufficient to process CD2AP. CD2AP-FLAG expressing HEK293 cells were co-transfected with WT cathepsin L […] which generates cytosolic and lysosomal cathepsin L protein and a cathepsin L construct that contains a deletion of the first AUG site and thus encodes selectively for the cytosolic form of cathepsin L. The experiments were performed in the presence or absence of a specific cathepsin L inhibitor (FIG. 2F). WT cathepsin L led to cleavage of CD2AP yielding p32. […] More importantly, transfection of cytosolic cathepsin L alone was sufficient to cleave CD2AP resulting in the production of p32 (FIG. 2F). […] The stable p32 fragment was identified in the cleavage assays at neutral pH (FIG. 2A). In addition, this fragment was generated in HEK 293 cells using cytosolic cathepsin L. Therefore, this fragment was regarded as an end-product generated through cytosolic cathepsin L cleavage. […]

[5] = target: cathepsin B (Homo sapiens, UniProt P07858); settings: cited from earlier work
[6] = listed as specific CatL inhibitor

What does the source list for `CC(C)C[C@H](NC(=O)[C@H]1O[C@@H]1C(=O)O)C(=O)NCCCCN=C(N)N` [E64]?
experimental proteinuria [1]: can reduce experimental proteinuria; protection against proteinuria [2]: safeguard against proteinuria

Which protection against proteinuria [2] does the source give for `COC(=O)[C@@H]1CC2=CC(=O)CC[C@]2(C)[C@@]23O[C@@H]2C[C@@]2(C)[C@@H](CC[C@@]24CCC(=O)O4)[C@H]13` [Epleronone] here?
The protection against proteinuria was “safeguard against proteinuria”.

For `CCN(CC)CCCC(C)Nc1nc(C)cc(Nc2ccc3nc(C)cc(N)c3c2)n1` (centres unmarked) [NSC23766], which protection against proteinuria [2] is on record?
The protection against proteinuria was “safeguard against proteinuria”.

For `O=C(NC(Cc1ccccc1)C(=O)NC(Cc1ccccc1)C(=O)CF)OCc1ccccc1` (stereo not drawn) [Z-FF-FMK] (Cbz-Phe-Phe-CH2F; configuration not given here), which “inhibition of cathepsin L activity in cytosolic extract of glomeruli” value [3] is on record?
Its value is “could be inhibited”.

And the “cleavage of CD2AP into p32 by WT cathepsin L” value [4, 6]?
Its value is “can be prevented”.

What about the “cleavage of CD2AP into p32 by WT cathepsin L” value ([4]; listed as specific cathepsin L inhibitor) of the same molecule?
The value was “could be prevented”.

And the “cleavage of CD2AP into p32 by cytosolic (short, CatL M1) cathepsin L” value ([4]; listed as cathepsin L inhibitor)?
Its value is “could be blocked”.

What about the “cleavage of CD2AP into p32 by cytosolic (short, CatL M1) cathepsin L” value [4, 6] of the same molecule?
Its value is “abrogated”.

What about the “inhibition of cathepsin B” value [5] of the same molecule?
The value was “does not inhibit cathepsin B”.

With `CC(C)[C@@H]1NC(=O)[C@@H](Cc2ccccc2)NC(=O)[C@H](CC(=O)O)NC(=O)CNC(=O)[C@H](CCCN=C(N)N)NC1=O` [cycloRGDfV] as the molecule, how does the protection against proteinuria [2] read?
The protection against proteinuria was “safeguard against proteinuria”.
